Laboratory results: ChEMBL document CHEMBL1142444 (Bioorg Med Chem Lett, 2008)

Experiments:
[1] = target: T1, Muscarinic acetylcholine receptor M1 (Homo sapiens) (UniProt P11229); assay: Agonist activity at muscarinic M1 receptor relative to carbachol; assay type: functional
T1 sequence (whole entry): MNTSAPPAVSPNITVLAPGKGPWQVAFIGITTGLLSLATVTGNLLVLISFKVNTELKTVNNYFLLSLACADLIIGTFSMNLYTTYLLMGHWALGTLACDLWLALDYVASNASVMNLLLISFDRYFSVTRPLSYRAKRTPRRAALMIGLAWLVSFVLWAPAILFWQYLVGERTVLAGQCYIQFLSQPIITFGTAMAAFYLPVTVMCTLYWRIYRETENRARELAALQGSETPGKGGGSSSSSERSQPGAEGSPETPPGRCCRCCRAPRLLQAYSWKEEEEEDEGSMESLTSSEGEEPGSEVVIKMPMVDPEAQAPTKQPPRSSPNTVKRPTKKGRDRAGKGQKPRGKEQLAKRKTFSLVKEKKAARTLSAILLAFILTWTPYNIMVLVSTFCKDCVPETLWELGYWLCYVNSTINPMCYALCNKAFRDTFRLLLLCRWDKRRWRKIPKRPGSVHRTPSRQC

[2] = target: T2, D(2) dopamine receptor (Homo sapiens, UniProt P14416); assay: Inhibition of dopamine D2 receptor
T2 sequence (P14416 whole entry): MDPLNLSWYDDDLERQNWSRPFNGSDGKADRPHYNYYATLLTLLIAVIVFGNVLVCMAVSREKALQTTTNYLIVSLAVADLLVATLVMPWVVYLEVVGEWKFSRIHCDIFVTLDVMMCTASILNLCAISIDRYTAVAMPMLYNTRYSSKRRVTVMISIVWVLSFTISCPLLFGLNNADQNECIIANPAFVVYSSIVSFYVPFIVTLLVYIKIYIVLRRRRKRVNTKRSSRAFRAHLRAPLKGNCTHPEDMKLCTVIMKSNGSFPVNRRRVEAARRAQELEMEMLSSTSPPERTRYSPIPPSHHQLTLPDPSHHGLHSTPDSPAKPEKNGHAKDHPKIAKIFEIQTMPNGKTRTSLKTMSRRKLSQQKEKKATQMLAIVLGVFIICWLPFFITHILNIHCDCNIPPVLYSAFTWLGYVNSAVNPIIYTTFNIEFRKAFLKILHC

[3] = target: T3, Muscarinic acetylcholine receptor M2 (Homo sapiens, UniProt P08172); assay: Agonist activity at muscarinic M2 receptor; assay type: functional
T3 sequence (P08172 whole entry): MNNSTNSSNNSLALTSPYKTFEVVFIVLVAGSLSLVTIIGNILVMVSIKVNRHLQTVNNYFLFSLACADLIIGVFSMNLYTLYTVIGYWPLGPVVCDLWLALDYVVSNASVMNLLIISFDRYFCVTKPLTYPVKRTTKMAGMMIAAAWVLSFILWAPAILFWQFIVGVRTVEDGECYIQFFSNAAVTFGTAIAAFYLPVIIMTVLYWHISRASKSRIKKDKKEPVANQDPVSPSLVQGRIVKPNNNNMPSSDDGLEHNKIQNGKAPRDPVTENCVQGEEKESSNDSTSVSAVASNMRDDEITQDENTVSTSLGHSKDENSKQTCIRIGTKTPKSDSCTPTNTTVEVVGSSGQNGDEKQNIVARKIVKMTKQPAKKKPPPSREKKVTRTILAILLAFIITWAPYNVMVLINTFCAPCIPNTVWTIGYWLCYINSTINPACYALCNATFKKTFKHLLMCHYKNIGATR

[4] = target: T4, Muscarinic acetylcholine receptor M5 (Homo sapiens, UniProt P08912); assay: Agonist activity at muscarinic M5 receptor; assay type: functional
T4 sequence (P08912 whole entry): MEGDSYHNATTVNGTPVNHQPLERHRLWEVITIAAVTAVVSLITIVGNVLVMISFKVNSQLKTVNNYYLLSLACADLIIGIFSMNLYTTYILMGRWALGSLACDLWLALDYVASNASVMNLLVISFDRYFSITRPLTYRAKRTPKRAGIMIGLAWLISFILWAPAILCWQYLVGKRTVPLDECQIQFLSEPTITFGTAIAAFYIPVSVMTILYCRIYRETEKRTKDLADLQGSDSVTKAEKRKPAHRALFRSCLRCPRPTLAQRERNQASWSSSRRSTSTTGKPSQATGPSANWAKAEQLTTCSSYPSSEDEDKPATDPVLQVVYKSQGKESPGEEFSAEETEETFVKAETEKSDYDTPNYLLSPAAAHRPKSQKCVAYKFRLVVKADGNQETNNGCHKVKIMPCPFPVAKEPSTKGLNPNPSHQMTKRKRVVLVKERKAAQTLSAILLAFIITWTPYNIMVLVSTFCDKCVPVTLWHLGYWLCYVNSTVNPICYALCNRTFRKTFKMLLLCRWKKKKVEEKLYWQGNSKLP

[5] = target: Muscarinic acetylcholine receptor M3 (Homo sapiens, UniProt P20309); assay: Agonist activity at muscarinic M3 receptor; assay type: functional
Chain of Muscarinic acetylcholine receptor M3 (P20309 whole entry): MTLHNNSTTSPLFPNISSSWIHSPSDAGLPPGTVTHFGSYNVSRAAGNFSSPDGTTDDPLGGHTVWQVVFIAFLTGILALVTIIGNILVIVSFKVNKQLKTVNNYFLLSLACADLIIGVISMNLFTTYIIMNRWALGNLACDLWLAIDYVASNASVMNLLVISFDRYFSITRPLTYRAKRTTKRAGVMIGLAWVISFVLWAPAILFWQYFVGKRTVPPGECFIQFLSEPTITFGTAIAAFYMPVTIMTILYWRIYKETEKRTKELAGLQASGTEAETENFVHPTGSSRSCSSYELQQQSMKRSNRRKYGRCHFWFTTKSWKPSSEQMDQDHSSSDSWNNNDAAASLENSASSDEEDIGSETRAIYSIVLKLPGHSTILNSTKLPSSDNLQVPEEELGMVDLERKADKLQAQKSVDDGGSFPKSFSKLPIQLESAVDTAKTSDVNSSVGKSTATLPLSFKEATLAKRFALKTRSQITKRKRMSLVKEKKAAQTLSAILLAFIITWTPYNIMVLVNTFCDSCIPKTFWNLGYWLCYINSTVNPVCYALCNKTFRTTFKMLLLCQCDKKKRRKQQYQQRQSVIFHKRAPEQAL

[6] = target: T5, Muscarinic acetylcholine receptor M4 (Homo sapiens, UniProt P08173); assay: Agonist activity at muscarinic M4 receptor; assay type: functional
T5 sequence (P08173 whole entry): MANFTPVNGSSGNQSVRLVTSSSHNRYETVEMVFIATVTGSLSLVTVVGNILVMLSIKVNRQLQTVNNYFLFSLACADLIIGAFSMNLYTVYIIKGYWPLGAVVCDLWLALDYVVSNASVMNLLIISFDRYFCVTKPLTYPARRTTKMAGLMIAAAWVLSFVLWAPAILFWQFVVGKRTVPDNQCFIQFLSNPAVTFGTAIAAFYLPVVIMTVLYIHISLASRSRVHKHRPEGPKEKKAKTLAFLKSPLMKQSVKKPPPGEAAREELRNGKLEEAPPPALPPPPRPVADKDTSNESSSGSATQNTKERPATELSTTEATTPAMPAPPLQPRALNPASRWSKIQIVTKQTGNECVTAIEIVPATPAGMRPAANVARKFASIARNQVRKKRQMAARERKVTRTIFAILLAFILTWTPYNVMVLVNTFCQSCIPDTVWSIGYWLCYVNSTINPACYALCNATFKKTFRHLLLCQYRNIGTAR

[7] = target: T6, Muscarinic acetylcholine receptor M1 (Homo sapiens, UniProt P11229); assay: Agonist activity at muscarinic M1 receptor; assay type: functional
T6 sequence (P11229 whole entry): T1 sequence (whole entry)

[8] = target: T2, D(2) dopamine receptor; assay: Inhibition of dopamine D2 receptor at 10 uM; design: scale not given: the % may be the effect or the level left
[9] = target: T7, Muscarinic acetylcholine receptor M2 (Homo sapiens) (UniProt P08172); assay: Agonist activity at muscarinic M2 receptor relative to carbachol; assay type: functional
T7 sequence (whole entry): T3 sequence (P08172 whole entry)

[10] = target: T8, Muscarinic acetylcholine receptor M4 (Homo sapiens) (UniProt P08173); assay: Agonist activity at muscarinic M4 receptor relative to carbachol; assay type: functional
T8 sequence (whole entry): T5 sequence (P08173 whole entry)

[11] = target: T9, Muscarinic acetylcholine receptor M5 (Homo sapiens) (UniProt P08912); assay: Agonist activity at muscarinic M5 receptor relative to carbachol; assay type: functional
T9 sequence (whole entry): T4 sequence (P08912 whole entry)

Compound | Activity [1] | IC50 [2] | EC50 [3] | EC50 [4] | EC50 [5] | EC50 [6] | EC50 [7] | Activity [8] | Activity [9] | Activity [10] | Activity [11]
Cc1ccccc1CN1CCC(N2CCC(n3c(=O)[nH]c4ccccc43)CC2)CC1 | 82% | 2.65 µM | > 50 µM | > 50 µM |  |  |  |  |  |  | 
O=c1[nH]c2cc(F)ccc2n1C1CCN(C2CCN(Cc3ccccc3C(F)(F)F)CC2)CC1 | 80% | 2.69 µM | > 50 µM | > 50 µM | > 50 µM | > 50 µM |  |  |  |  | 
Cc1ccccc1CN1CCC(N2CCC(n3c(=O)[nH]c4cc(Cl)ccc43)CC2)CC1 | 84% |  | > 50 µM | > 50 µM | > 50 µM | > 50 µM | 1.03 µM | 35% |  |  | 
N#Cc1ccccc1CN1CCC(N2CCC(n3c(=O)[nH]c4ccccc43)CC2)CC1 | 23% |  | > 50 µM | > 50 µM | > 50 µM | > 50 µM | 0.49 µM | 40% |  |  | 
O=c1[nH]c2cc(Cl)ccc2n1C1CCN(C2CCN(Cc3ccccc3C(F)(F)F)CC2)CC1 | 83% |  | > 50 µM | > 50 µM | > 50 µM | > 50 µM | 1.5 µM |  |  |  | 
Cc1ccccc1CN1CCC(N2CCC(n3c(=O)[nH]c4ccc(F)cc43)CC2)CC1 | 84% | > 10 µM | > 50 µM | > 50 µM | > 50 µM | > 50 µM |  |  |  |  | 
O=c1[nH]c2cc(Cl)ccc2n1C1CCN(C2CCN(Cc3ccccc3)CC2)CC1 | 74% |  | > 50 µM | > 50 µM | > 50 µM | > 50 µM | 0.356 µM | 35% |  |  | 
O=c1[nH]c2ccccc2n1C1CCN(C2CCN(Cc3ccccc3[N+](=O)[O-])CC2)CC1 | 48% | 1.13 µM | > 50 µM | > 50 µM | > 50 µM | > 50 µM | 0.12 µM |  |  |  | 
O=c1[nH]c2cc(Cl)ccc2n1C1CCN(C2CCN(Cc3ccccc3[N+](=O)[O-])CC2)CC1 | 42% |  | > 50 µM | > 50 µM | > 50 µM | > 50 µM | 1.1 µM |  |  |  | 
N#Cc1ccccc1CN1CCC(N2CCC(n3c(=O)[nH]c4cc(Cl)ccc43)CC2)CC1 | 27% |  | > 50 µM | > 50 µM | > 50 µM | > 50 µM | 1.6 µM |  |  |  | 
O=c1[nH]c2cc(Cl)ccc2n1C1CCN(C2CCN(Cc3ccccc3Cl)CC2)CC1 | 49% |  | > 50 µM | > 50 µM | > 50 µM | > 50 µM | 1.8 µM |  |  |  | 
O=c1[nH]c2ccc(F)cc2n1C1CCN(C2CCN(Cc3ccccc3C(F)(F)F)CC2)CC1 |  | > 10 µM | > 50 µM | > 50 µM | > 50 µM | > 50 µM |  |  |  |  | 
O=c1[nH]c2ccccc2n1C1CCN(C2CCN(Cc3ccccc3C(F)(F)F)CC2)CC1 |  |  | > 50 µM | > 50 µM | > 50 µM | > 50 µM | 0.41 µM | 30% |  |  | 
O=c1[nH]c2c(F)cccc2n1C1CCN(C2CCN(Cc3ccccc3C(F)(F)F)CC2)CC1 | 75% | > 10 µM | > 50 µM | > 50 µM | > 50 µM | > 50 µM |  |  |  |  | 
Cc1ccccc1CN1CCC(N2CCC(n3c(=O)[nH]c4c(F)cccc43)CC2)CC1 | 73% | > 10 µM | > 50 µM | > 50 µM | > 50 µM | > 50 µM |  |  |  |  | 
Cc1ccccc1CN1CCC(N2CCC(n3c(=O)[nH]c4cc(F)ccc43)CC2)CC1 | 85% |  | > 50 µM | > 50 µM | > 50 µM | > 50 µM |  | 40% |  |  | 
O=c1[nH]c2ccccc2n1C1CCN(C2CCN(Cc3ccccc3Cl)CC2)CC1 | 44% | 2.06 µM | > 50 µM | > 50 µM | > 50 µM | > 50 µM | 0.26 µM |  |  |  | 
CCOC(=O)N1CCC(N2CCC(n3c(=O)[nH]c4ccccc43)CC2)CC1 |  | > 10 µM | 0.0119 µM | 0.0343 µM |  | 0.0091 µM |  |  | 80.6% | 96.9% | 50.8%
